Data on one substance can be found in patent US20240270811A1, “Glycosylated Neuropeptide Derivative, Pharmaceutical Composition, Intranasal/Nasal Drop Formulation, and Use of Pharmaceutical Composition” (Tokyo University of Science Foundation, priority 2021, published 2024).

Where no end group is shown, it is not given here. The star is where a group is joined. X1 = CC(=O)N[C@@H]1[C@@H](O)[C@H](O[C@@H]2O[C@H](CO)[C@@H](O[C@@H]3O[C@H](CO[C@H]4O[C@H](CO)[C@@H](O)[C@H](O)[C@@H]4O[C@@H]4O[C@H](CO)[C@@H](O[C@@H]5O[C@H](CO[C@]6(C(=O)O)C[C@H](O)[C@@H](NC(C)=O)[C@H]([C@H](O)[C@H](O)CO)O6)[C@H](O)[C@H](O)[C@H]5O)[C@H](O)[C@H]4NC(C)=O)[C@@H](O)[C@H](O[C@H]4O[C@H](CO)[C@@H](O)[C@H](O)[C@@H]4O[C@@H]4O[C@H](CO)[C@@H](O[C@@H]5O[C@H](CO[C@]6(C(=O)O)C[C@H](O)[C@@H](NC(C)=O)[C@H]([C@H](O)[C@H](O)CO)O6)[C@H](O)[C@H](O)[C@H]5O)[C@H](O)[C@H]4NC(C)=O)[C@@H]3O)[C@H](O)[C@H]2NC(C)=O)[C@@H](CO)O[C@H]1NC(=O)C*

Series [1] in a line: Brain distribution by immunostaining and fluorescence quantification (Example 7). The series is classed as in vivo. The following applies: 3.0 nmol/mouse intranasal. How it is done: Mice were intranasally administered with 16% DMSO or GLP-2 derivatives (3.0 nmol/mouse), and the brain was isolated 5 minutes, 10 minutes, 20 minutes and 60 minutes after the administration.
The brain isolated 5 minutes or 10 minutes after the intranasal administration was subjected to infiltration fixation with 4% PFA at 4° C. overnight without performing perfusion fixation. The isolation of the brain 20 minutes or 60 minutes after the intranasal administration was performed by the following process.
The mouse was fixed in a supine position under anesthesia with isoflurane, and the chest was incised. PBS and 4% PFA were perfused, in this order, from the left chamber of the heart throughout the whole body for fixing the tissue. The isolated brain was preserved in a 4% PFA solution. On the day following the isolation, the brain samples were substituted with 20% sucrose overnight (4° C.), and further with 30% sucrose overnight (4° C.). Thereafter, a frozen section with a thickness of 30 μm was prepared using a cryostat (CM3050S; Leica Microsystems).
Sections of the olfactory bulb (OB) including olfactory nerves, pons/principal sensory nucleus of trigeminal nerve (Pr5), hippocampus (HIP) and dorsomedial nucleus of the hypothalamus (DMH) were prepared by referring to Nissil staining images and the brain map (Paxinos and Franklin, 2003).
The frozen brain section was mounted on a slide glass, and a circle was drawn around the section with a liquid blocker. A blocking buffer was added inside the circle and the section was subjected to blocking for 30 minutes at room temperature. Thereafter, the section was added with a first antibody solution including a GLP-2 polyclonal antibody, diluted 200 times with a blocking solution, and subjected to incubation for 1 hour at room temperature. After washing three times with 1×PBS, the section was added with a second antibody solution including Alexa Fluor (trademark) 568 Goat Anti-Mouse IgG H&L, diluted 500 times with a BSA/PBS solution, and subjected to incubation for 1 hour at room temperature. After washing three times with 1×PBS, the section was mounted with ProLong (trademark) Diamond Antifade Mountant. After confirming the solidification of the mountant, the section was subjected to fluorescent observation and imaging with a confocal laser microscope (TCS SP8; Leica) and a software (Leica Application Suite X Software; Leica). Further, the fluorescent intensity in the image was calculated using the software and an average florescent intensity of each group was quantified.
The mice were intranasally administered with a PAS-CPP-GLP-2 (no sugar) or a PAS-CPP-GLP-2 (11-sugar).

Series [2] in a line: Observation of section of trigeminal nerve after intranasal administration (FITC-labelled). The series is classed as in vivo, mouse. Conditions: 3.0 nmol/4 μL intranasal, 5 minutes. How it is done: After anesthetizing 7-week-old male ddY mice with isoflurane using an all-in-one small animal anesthetizer, a 16% DMSO solution of a PAS-CPP-GLP-2 derivative (11-sugar) labeled with FITC (3.0 nmol/4 μL) or 16% DMSO as a control was intranasally administered to the mice by the amount of 2 μL per nose cavity, 4 μL in total. The trigeminal nerve was isolated 5 minutes after the administration.
The trigeminal nerve was subjected to infiltration fixation with 4% PFA overnight. On the day following the isolation, the trigeminal nerve was substituted with 20% sucrose overnight (4° C.), and further with 30% sucrose overnight (4° C.). Thereafter, a frozen section with a thickness of 20 μm was prepared using a cryostat (CM3050S; Leica Microsystems).
The frozen section was mounted on a slide glass, and a circle was drawn around the section with a liquid blocker. To the inner side of the circle, 10 mM CuSO4/CH3COONH4 having an ability to suppress auto-fluorescence was added to immerse the section for 15 minutes. After washing three times with 1×PBS, a blocking buffer was added inside the circle and the section was subjected to blocking for 30 minutes at room temperature. […]

Series [3] is described as follows: Observation of section of trigeminal lemniscus after intranasal administration. The following applies: 3.0 nmol/mouse intranasal, 15 minutes. The series is classed as in vivo. On the procedure:
Mice were intranasally administered with 16% DMSO or a glycosylated GLP-2 derivative (3.0 nmol/mouse). The brain was isolated 15 minutes after the administration, and was subjected to infiltration fixation with 4% PFA overnight. On the day following the isolation, the brain was substituted with 30% sucrose overnight (4° C.). Thereafter, a frozen section of trigeminal lemniscus with a thickness of 30 μm was prepared using a cryostat (CM3050S; Leica Microsystems, WetZlar, Germany).
The frozen section was mounted on a slide glass, and was subjected to blocking for 30 minutes at room temperature with a blocking buffer. Thereafter, the section was added with a first antibody solution including Neuro-Chrom (trade name) Pan Neuronal Marker Antibody-Rabbit, diluted with a blocking buffer (1:500), and subjected to incubation overnight (4° C.). After washing three times with 1×PBS, the section was added with a first antibody solution including a GLP-2 polyclonal antibody diluted with a BSA/PBS solution (1:200), and subjected to incubation for 2 hours at room temperature. After washing three times with 1×PBS, the section was added with a second antibody solution including Alexa Fluor (trademark) 568 Goat Anti-Mouse IgG H&L, diluted 1000 times with a 1% BSA/PBS solution and DAPI ([…]), and subjected to incubation for 1 hour at room temperature. […]

Turning to “FFLIPKGRRRRRRRRGGHADGSFSDEMNTILDNLAARDFINWLIQTKITDC(X1)-OH [PAS-CPP-GLP-2 (11-sugar)]”, in series [1] (5 minutes), the “fluorescence at OB and Pr5” value is “a significant degree of fluorescence was observed”. Further, in series [1] (20 minutes), the “fluorescence at HIP and DMH” value is reported as “intense fluorescence was observed”; the “fluorescence intensity at OB or Pr5 compared with 5 minutes” value is “weaker than the fluorescence observed 5 minutes after the administration”. In series [1] (60 minutes), the “fluorescence at HIP and DMH” value is recorded as “a significant degree of fluorescence was observed”; the “fluorescence at OB and Pr5” value was “a significant degree of fluorescence was observed”; the “fluorescence intensity at OB and Pr5 compared with 5 minutes” value is “weaker than the fluorescence observed 5 minutes after the administration”. Also, the “fluorescence in section of trigeminal nerve (overlap of derivative and neural fibers)” value in series [2] was “expresses yellow fluorescence”. For the same substance, the “fluorescence in nerve bundle that constitutes the trigeminal lemniscus” value in series [3] is reported as “a large amount of fluorescence for a drug was observed”.
